Tested on: yeast genes (level of expressed mRNA)
Assay: DNA chip analysis of expressed mRNA of yeast genes after 2 h culture with a toxic chemical substance
Type: cell-based, Saccharomyces cerevisiae S288C
Details: for The level of expressed mRNA in the presence of chemical substance/ (ratio to absence of chemical substance): stress protein genes, DNA chip
Experimental: Yeast (Saccharomyces cerevtisiae S288C (α SUC2mal mel gap2 CUP1)) were cultured at 25° C. on YPD medium (yeast extract 1%, polypepton 2%, glucose 2%). One of toxic chemical substances was added to the cell at logarithmic growth phase, and the cell was further cultured for two hours. Cell was cultured without any chemical substance in the same condition, and was used as control. Concentrations of the chemical substances were defined to inhibit the growth of the yeast but not lead to death.
After the completion of cultivation, the culture was centrifuged to collect the cells. To the cells, sodium acetate buffer (50 mM sodium acetate, 10 mM EDTA, 1% SDS) was added, and the mixture was shaken at 65° C. for five minutes, followed by returning to room temperature, and obtaining the supernatant, which procedure was repeated two times. To the supernatant, ½ amount of a solution of phenol/chloroform was added, and the mixture was centrifuged to give a supernatant, which was added with an equal amount of chloroform, and the mixture was centrifuged to give a supernatant. To the supernatant, an equal amount of isopropanol containing 0.3 M sodium acetate was added, and the mixture was allowed to stand at room temperature for 30 minutes, after which the mixture was centrifuged to give a sediment of the whole RNAs. Seventy % ethanol was added to the sediment, and the mixture was again centrifuged to give a sediment, which was then dried and dissolved in water. mRNA was isolated from the whole RNAs as followings. In view of the fact that a poly A chain is attached to the 3′ terminus of mRNA, a polynucleotide having a poly T structure which was immobilized on the surface of latex beads was used to trap the mRNA, and then the mRNA was washed and eluted with spine column (Oligotex-dT30<Super>mRNA Purification Kit, Takara). Reverse transcription of the mRNA was conducted with a reverse transcriptase (Super Script II Reverse Transcriptase; catalogue No. 18064-014, GibcoBRL) using fluorescence-labeled nucleotides to give cDNAs that were introduced with Cy3-dUTP or Cy5-dUTP during the reverse transcription.
The labeled cDNAs were dissolved in TE buffer (10 mM Tris-HCl/1 mM EDTA, pH8.0), and the solution was dropped on the DNA chip containing the whole genes of yeast (DNA Chip Research Inc. Japan) so that the cDNAs were hybridized on the DNA chip at 65° C. for over 12 hours. The fluoresces intensity of the DNA chip was read with a scanner, and the ratio relative to the fluorescence intensity resulting from the absence of chemical substance was estimated as the following, which is shown in Tables 1 to 9: [formula]
In the Tables, “Intensity” indicated in the rightmost column is a value of the level of expressed mRNA of each gene in control cells as divided by the average level of the expressions of the whole genes.

In the case of `C[S+](C)[O-]` [(15), dimethylsulfoxide], the “The level of expressed mRNA in the presence of chemical substance/The level of expressed mRNA in the absence of chemical substance” value (yeast gene YJL073W) is reported as 2.6, the “The level of expressed mRNA in the presence of chemical substance/The level of expressed mRNA in the absence of chemical substance” value (yeast gene YJL089W) is reported as 6.4 and the “The level of expressed mRNA in the presence of chemical substance/ (ratio to absence), gene YJL096W” value (yeast gene YJL096W, mitochondria-located protein genes, 2 h culture with chemical) is reported as 1.0. The “The level of expressed mRNA in the presence of chemical substance/The level of expressed mRNA in the absence of chemical substance” value (yeast gene YJL116C) was 1.0, the “The level of expressed mRNA in the presence of chemical substance/ (ratio to absence of chemical substance)” value (yeast gene YJL158C) was 1.7 and the “The level of expressed mRNA in the presence of chemical substance/ (in its absence), gene YJL167W” value (yeast gene YJL167W, ratio of DNA chip fluorescence intensity to that without chemical substance) was 1.6. For the same molecule, the “The level of expressed mRNA in the presence of chemical substance/ (ratio to absence), gene YJL180C” value (yeast gene YJL180C, mitochondria-located protein genes, 2 h culture with chemical) was 0.6, the “The level of expressed mRNA in the presence of chemical substance/ (in its absence), gene YJL216C” value (yeast gene YJL216C, ratio of DNA chip fluorescence intensity to that without chemical substance) was 1.2 and the “The level of expressed mRNA in the presence of chemical substance/The level of expressed mRNA in the absence of chemical substance” value (yeast gene YJR004C) was 3.2. The “The level of expressed mRNA in the presence of chemical substance/The level of expressed mRNA in the absence of chemical substance” value (yeast gene YJR086W) was 2.0, the “The level of expressed mRNA in the presence of chemical substance/ (ratio to absence of chemical substance)” value (yeast gene YJR090C) was 1.6 and the “The level of expressed mRNA in the presence of chemical substance/The level of expressed mRNA in the absence of chemical substance” value (yeast gene YKL008C) was 1.3. The “The level of expressed mRNA in the presence of chemical substance/The level of expressed mRNA in the absence of chemical substance” value (yeast gene YKL013C) was 1.2, the “The level of expressed mRNA in the presence of chemical substance/The level of expressed mRNA in the absence of chemical substance” value (yeast gene YKL039W) was 3.1 and the “The level of expressed mRNA in the presence of chemical substance/The level of expressed mRNA in the absence of chemical substance” value (yeast gene YKL041W) was 1.0. For the same molecule, the “The level of expressed mRNA in the presence of chemical substance/The level of expressed mRNA in the absence of chemical substance” value (yeast gene YKL096W) was 2.3, the “The level of expressed mRNA in the presence of chemical substance/The level of expressed mRNA in the absence of chemical substance” value (yeast gene YKL139W) was 1.0 and the “The level of expressed mRNA in the presence of chemical substance/ (ratio to absence of chemical substance)” value (yeast gene YKL164C) was 1.2. The “The level of expressed mRNA in the presence of chemical substance/The level of expressed mRNA in the absence of chemical substance” value (yeast gene YKL165C) was 2.1, the “The level of expressed mRNA in the presence of chemical substance/The level of expressed mRNA in the absence of chemical substance” value (yeast gene YKL193C) was 1.2 and the “The level of expressed mRNA in the presence of chemical substance/ (in its absence), gene YKR009C” value (yeast gene YKR009C, ratio of DNA chip fluorescence intensity to that without chemical substance) was 1.0. The “The level of expressed mRNA in the presence of chemical substance/The level of expressed mRNA in the absence of chemical substance” value (yeast gene YKR014C) was 1.4, the “The level of expressed mRNA in the presence of chemical substance/ (in its absence), gene YKR034W” value (yeast gene YKR034W, ratio of DNA chip fluorescence intensity to that without chemical substance) was 1.7 and the “The level of expressed mRNA in the presence of chemical substance/ (ratio to absence of chemical substance)” value (yeast gene YKR053C) was 0.3. For the same molecule, the “The level of expressed mRNA in the presence of chemical substance/ in its absence, gene YKR058W” value (yeast gene YKR058W, energy system protein genes, 2 h culture with the chemical, ratio to control without chemical) was 0.5, the “The level of expressed mRNA in the presence of chemical substance/ (in its absence), gene YLR006C” value (yeast gene YLR006C, ratio of DNA chip fluorescence intensity to that without chemical substance) was 0.9 and the “The level of expressed mRNA in the presence of chemical substance/ (ratio to absence of chemical substance)” value (yeast gene YLR006C) was 0.9. The “The level of expressed mRNA in the presence of chemical substance/The level of expressed mRNA in the absence of chemical substance” value (yeast gene YLR093C) was 0.9, the “The level of expressed mRNA in the presence of chemical substance/The level of expressed mRNA in the absence of chemical substance” value (yeast gene YLR120C) was 2.7 and the “The level of expressed mRNA in the presence of chemical substance/The level of expressed mRNA in the absence of chemical substance” value (yeast gene YLR136C) was 2.1. The “The level of expressed mRNA in the presence of chemical substance/The level of expressed mRNA in the absence of chemical substance” value (yeast gene YLR178C) was 2.3, the “The level of expressed mRNA in the presence of chemical substance/The level of expressed mRNA in the absence of chemical substance” value (yeast gene YLR250W) was 2.6 and the “The level of expressed mRNA in the presence of chemical substance/ in its absence, gene YLR295C” value (yeast gene YLR295C, energy system protein genes, 2 h culture with the chemical, ratio to control without chemical) was 0.5. The “The level of expressed mRNA in the presence of chemical substance/ (ratio to absence), gene YLR295C” value (yeast gene YLR295C, mitochondria-located protein genes, 2 h culture with chemical) was 0.5, the “The level of expressed mRNA in the presence of chemical substance/The level of expressed mRNA in the absence of chemical substance” value (yeast gene YLR327C) was 0.8 and the “The level of expressed mRNA in the presence of chemical substance/ (in its absence), gene YLR351C” value (yeast gene YLR351C, ratio of DNA chip fluorescence intensity to that without chemical substance) was 1.2. The “The level of expressed mRNA in the presence of chemical substance/The level of expressed mRNA in the absence of chemical substance” value (yeast gene YLR356W) was 2.8, the “The level of expressed mRNA in the presence of chemical substance/The level of expressed mRNA in the absence of chemical substance” value (yeast gene YLR362W) was 1.3 and the “The level of expressed mRNA in the presence of chemical substance/ (in its absence), gene YLR375W” value (yeast gene YLR375W, ratio of DNA chip fluorescence intensity to that without chemical substance) was 1.3. The “The level of expressed mRNA in the presence of chemical substance/The level of expressed mRNA in the absence of chemical substance” value (yeast gene YLR391W) was 3.9, the “The level of expressed mRNA in the presence of chemical substance/The level of expressed mRNA in the absence of chemical substance” value (yeast gene YLR429W) was 1.5 and the “The level of expressed mRNA in the presence of chemical substance/ in its absence, gene YML129C” value (yeast gene YML129C, energy system protein genes, 2 h culture with the chemical, ratio to control without chemical) was 1.1. The “The level of expressed mRNA in the presence of chemical substance/ (ratio to absence), gene YML129C” value (yeast gene YML129C, mitochondria-located protein genes, 2 h culture with chemical) was 1.1, the “The level of expressed mRNA in the presence of chemical substance/The level of expressed mRNA in the absence of chemical substance” value (yeast gene YMR004W) was 1.3 and the “The level of expressed mRNA in the presence of chemical substance/ (ratio to absence), gene YMR023C” value (yeast gene YMR023C, mitochondria-located protein genes, 2 h culture with chemical) was 0.7. For the same molecule, the “The level of expressed mRNA in the presence of chemical substance/The level of expressed mRNA in the absence of chemical substance” value (yeast gene YMR094W) was 6.6, the “The level of expressed mRNA in the presence of chemical substance/The level of expressed mRNA in the absence of chemical substance” value (yeast gene YMR104C) was 2.5 and the “The level of expressed mRNA in the presence of chemical substance/ (ratio to absence of chemical substance)” value (yeast gene YMR186W) was 1.3. The “The level of expressed mRNA in the presence of chemical substance/The level of expressed mRNA in the absence of chemical substance” value (yeast gene YMR219W) was 1.7, the “The level of expressed mRNA in the presence of chemical substance/The level of expressed mRNA in the absence of chemical substance” value (yeast gene YMR226C) was 2.0 and the “The level of expressed mRNA in the presence of chemical substance/ in its absence, gene YMR267W” value (yeast gene YMR267W, energy system protein genes, 2 h culture with the chemical, ratio to control without chemical) was 0.9. The “The level of expressed mRNA in the presence of chemical substance/ (ratio to absence), gene YMR267W” value (yeast gene YMR267W, mitochondria-located protein genes, 2 h culture with chemical) was 0.9, the “The level of expressed mRNA in the presence of chemical substance/ in its absence, gene YMR267W” value (yeast gene YMR267W, ratio of DNA chip fluorescence intensity to that without chemical substance) was 0.9 and the “The level of expressed mRNA in the presence of chemical substance/The level of expressed mRNA in the absence of chemical substance” value (yeast gene YMR275C) was 1.7. For the same molecule, the “The level of expressed mRNA in the presence of chemical substance/The level of expressed mRNA in the absence of chemical substance” value (yeast gene YMR276W) was 3.3, the “The level of expressed mRNA in the presence of chemical substance/ (in its absence), gene YMR278W” value (yeast gene YMR278W, ratio of DNA chip fluorescence intensity to that without chemical substance) was 1.8 and the “The level of expressed mRNA in the presence of chemical substance/ (in its absence), gene YMR293C” value (yeast gene YMR293C, ratio of DNA chip fluorescence intensity to that without chemical substance) was 0.7.
